#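 96-well plates; 48 h exposure; 5 concentrations. Endpoints by linear interpolation between flanking doses. Not reached: highest tested concentration assigned. GI50 marks 50% less growth.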 Calls of active or inactive are those of the source. No stated cut-off is given here; in the data, active = GI50 up to about 1.1 µM and inactive = higher.
# What was measured:
# Assay in all cases: NCI-60 cell line screen, 48 h
# SN12C = test system: SN12C
# MOLT-4 = test system: MOLT-4
# OVCAR-3 = test system: OVCAR-3
# M14 = test system: M14
# COLO 205 = test system: COLO 205
# HOP-92 = test system: HOP-92
# HCT-116 = test system: HCT-116
# HOP-62 = test system: HOP-62
# Hs-578T = test system: Hs-578T
# NCI-H460 = test system: NCI-H460
# DU-145 = test system: DU-145
# SF-295 = test system: SF-295
# MCF7 = test system: MCF7
# SR = test system: SR
# SW-620 = test system: SW-620
# EKVX = test system: EKVX
# 786-0 = test system: 786-0
# HCT-15 = test system: HCT-15
# IGROV-1 = test system: IGROV-1
Structure (SMILES),GI50 (SN12C),GI50 (MOLT-4),GI50 (OVCAR-3),GI50 (M14),GI50 (COLO 205),GI50 (HOP-92),GI50 (HCT-116),GI50 (HOP-62),GI50 (Hs-578T),GI50 (NCI-H460),GI50 (DU-145),GI50 (SF-295),GI50 (MCF7),GI50 (SR),GI50 (SW-620),GI50 (EKVX),GI50 (786-0),GI50 (HCT-15) [µM],GI50 (IGROV-1)
Nc1ncnc2c1nc(Cl)n2C1OC(CO)C(O)C1O (stereo unspecified),1.88 µM (inactive),0.474 µM (active),2.75 µM (inactive),0.9 µM (active),1.11 µM (active),9.08 µM (inactive),0.352 µM (active),8.28 µM (inactive),15.3 µM (inactive),0.414 µM (active),0.714 µM (active),5.11 µM (inactive),0.562 µM (active),1.13 µM (inactive),1.55 µM (inactive),5.7 µM (inactive),1.79 µM (inactive),0.283,0.653 µM (active)
CC1=NN=C(C)C1/N=N/c1ccc2[nH]c(C)nc2c1,> 52 µM (inactive),13.7 µM (inactive),13.4 µM (inactive),23.1 µM (inactive),29.6 µM (inactive),14.8 µM (inactive),10.9 µM (inactive),26.4 µM (inactive),5.36 µM (inactive),11 µM (inactive),9.23 µM (inactive),17.9 µM (inactive),28.7 µM (inactive),5.41 µM (inactive),25.3 µM (inactive),18.7 µM (inactive),34.4 µM (inactive),6.68,5.62 µM (inactive)
COc1ccc(/C=C2\C[C@H]3[C@@H]4CC=C5C[C@@H](O)CC[C@]5(C)[C@H]4CC[C@]3(C)\C2=N\O)cc1,18.1 µM (inactive),5.89 µM (inactive),6.89 µM (inactive),12.7 µM (inactive),10 µM (inactive),25.6 µM (inactive),5.35 µM (inactive),55.6 µM (inactive),10 µM (inactive),34.4 µM (inactive),22.4 µM (inactive),6.98 µM (inactive),3.62 µM (inactive),1.89 µM (inactive),26.7 µM (inactive),1.41 µM (inactive),14.3 µM (inactive),6,38.2 µM (inactive)
Cc1ccc(SC2C(=O)C3CC(OCc4ccccc4)C2(C)C3(C)C)cc1 (stereo unspecified),> 100 µM (inactive),13 µM (inactive),> 100 µM (inactive),> 100 µM (inactive),,29.6 µM (inactive),9.66 µM (inactive),> 100 µM (inactive),> 100 µM (inactive),> 100 µM (inactive),> 100 µM (inactive),> 100 µM (inactive),> 100 µM (inactive),51.3 µM (inactive),> 100 µM (inactive),64.7 µM (inactive),> 100 µM (inactive),29.1,> 100 µM (inactive)
CC(C)Cn1cnc2c(NCC(C)O)nc3ccccc3c21 (stereo unspecified),> 100 µM (inactive),63.2 µM (inactive),> 100 µM (inactive),> 100 µM (inactive),51.1 µM (inactive),27.9 µM (inactive),42.5 µM (inactive),> 100 µM (inactive),45.7 µM (inactive),> 100 µM (inactive),89.5 µM (inactive),> 100 µM (inactive),> 100 µM (inactive),84.5 µM (inactive),> 100 µM (inactive),29 µM (inactive),> 100 µM (inactive),78.3,36.8 µM (inactive)
CCOP(=O)(OCC)/C(C#N)=C/c1c[nH]c2ccccc12,> 100 µM (inactive),,62.8 µM (inactive),> 100 µM (inactive),> 100 µM (inactive),> 100 µM (inactive),> 100 µM (inactive),> 100 µM (inactive),> 100 µM (inactive),> 100 µM (inactive),> 100 µM (inactive),> 100 µM (inactive),> 100 µM (inactive),> 100 µM (inactive),> 100 µM (inactive),> 100 µM (inactive),> 100 µM (inactive),> 100,> 100 µM (inactive)
O=C(O)c1cccc(S(=O)(=O)NN2C(=O)CSC2c2ccccc2)c1 (stereo unspecified),> 100 µM (inactive),> 100 µM (inactive),> 100 µM (inactive),> 100 µM (inactive),> 100 µM (inactive),> 100 µM (inactive),> 100 µM (inactive),> 100 µM (inactive),> 100 µM (inactive),> 100 µM (inactive),> 100 µM (inactive),> 100 µM (inactive),> 100 µM (inactive),32.9 µM (inactive),> 100 µM (inactive),> 100 µM (inactive),> 100 µM (inactive),> 100,> 100 µM (inactive)
CC1=NC(=Cc2cc(Br)cc(Br)c2)C(=O)N1n1c(-c2ccccc2)nc2ccccc2c1=O,> 100 µM (inactive),> 100 µM (inactive),> 100 µM (inactive),> 100 µM (inactive),> 100 µM (inactive),> 100 µM (inactive),> 100 µM (inactive),> 100 µM (inactive),> 100 µM (inactive),> 100 µM (inactive),> 100 µM (inactive),> 100 µM (inactive),> 100 µM (inactive),55.2 µM (inactive),> 100 µM (inactive),> 100 µM (inactive),> 100 µM (inactive),> 100,> 100 µM (inactive)
CNC(=O)C1CCCN1C(=O)C(Cc1c[nH]cn1)NC(=O)C1CCC(=O)N1 (stereo unspecified),> 100 µM (inactive),> 100 µM (inactive),> 100 µM (inactive),> 100 µM (inactive),> 100 µM (inactive),> 100 µM (inactive),> 100 µM (inactive),> 100 µM (inactive),> 100 µM (inactive),> 100 µM (inactive),> 100 µM (inactive),> 100 µM (inactive),> 100 µM (inactive),> 100 µM (inactive),> 100 µM (inactive),> 100 µM (inactive),85.5 µM (inactive),> 100,> 100 µM (inactive)
COc1ccc(CNC(=O)[C@H](Cc2ccc(O)cn2)NC(C)=O)cc1OC,> 100 µM (inactive),> 96.8 µM (inactive),> 100 µM (inactive),> 100 µM (inactive),> 100 µM (inactive),> 100 µM (inactive),> 100 µM (inactive),> 100 µM (inactive),> 74.5 µM (inactive),> 100 µM (inactive),> 100 µM (inactive),> 100 µM (inactive),> 100 µM (inactive),> 100 µM (inactive),> 100 µM (inactive),> 100 µM (inactive),> 100 µM (inactive),> 100,> 100 µM (inactive)
CN(C)c1c(C2CC(O)C(CO)O2)c(=O)c1=O (stereo unspecified),> 100 µM (inactive),> 100 µM (inactive),> 100 µM (inactive),> 100 µM (inactive),,> 100 µM (inactive),> 100 µM (inactive),> 100 µM (inactive),> 100 µM (inactive),> 100 µM (inactive),> 100 µM (inactive),> 100 µM (inactive),> 100 µM (inactive),> 100 µM (inactive),> 100 µM (inactive),> 100 µM (inactive),> 100 µM (inactive),> 100,> 100 µM (inactive)

# Reference: ChEMBL document CHEMBL1201862, “PubChem BioAssay data set” (2004)
